14 compounds from ChEMBL document CHEMBL3259721, “Base substituted 5'-O-(N-isoleucyl)sulfamoyl nucleoside analogues as potential antibacterial agents” (Bioorg Med Chem, 2014) can be followed below.

Test [1] concerns Escherichia coli. Briefly: Antibacterial activity against wild type Escherichia coli assessed as growth inhibition in Luria broth at 5 mM after 8 to 18 hrs by broth dilution test. The test is classed as functional, organism-based.
For test [2], the system named is Escherichia coli. Briefly: Antibacterial activity against wild type Escherichia coli Ara-Yej (BW39758) assessed as growth inhibition in Luria broth at 10 to 60 uM after 8 hrs by broth dilution test. The test is classed as functional, organism-based.
For test [3], the system named is Escherichia coli. Briefly: Antibacterial activity against wild type Escherichia coli assessed as growth inhibition in Luria broth at 5 mM after 8 to 18 hrs by disc diffusion method. The test is classed as functional, organism-based.
The target of test [4] is Isoleucine--tRNA ligase (Escherichia coli K-12) (UniProt P00956). Briefly: Inhibition of Isoleucine-tRNA synthetase in wild type Escherichia coli S30 cell extract assessed as inhibition of [C14]isoleucine incorporation in tRNA under in vitro aminoacylation conditions at 3.13 uM by liquid scintillation counting.

Active and inactive are the calls of the source. No cut-off for these calls is given here. Peptide text beside a SMILES is read from it. * marks the point of attachment. X6 = CC[C@H](C)[C@H](N*)C(=O)NS(=O)(=O)OC[C@H]1O[C@@H](n2cnc3c([N+](=O)[O-])cccc32)[C@H](O)[C@@H]1O; X7 = CC[C@H](C)[C@H](N*)C(=O)NS(=O)(=O)OC[C@H]1O[C@@H](n2cnc3c(=O)[nH]c(N)nc32)[C@H](O)[C@@H]1O; X3 = CC[C@H](C)[C@H](N*)C(=O)NS(=O)(=O)OC[C@H]1O[C@@H](n2ccc(=O)[nH]c2=O)[C@H](O)[C@@H]1O; X1 = CC[C@H](C)[C@H](N*)C(=O)NS(=O)(=O)OC[C@H]1O[C@@H](n2cnc3c(N)cccc32)[C@H](O)[C@@H]1O; X2 = CC[C@H](C)[C@H](N*)C(=O)NS(=O)(=O)OC[C@H]1O[C@@H](n2cnc3c(N)ncnc32)[C@H](O)[C@@H]1O; X4 = CC[C@H](C)[C@H](N*)C(=O)NS(=O)(=O)OC[C@H]1O[C@@H](n2cnc3c(O)ncnc32)[C@H](O)[C@@H]1O; X5 = CC[C@H](C)[C@H](N*)C(=O)NS(=O)(=O)OC[C@H]1O[C@@H](n2ccc(N)nc2=O)[C@H](O)[C@@H]1O; For = O=C*

Isoleucine--tRNA ligase (Escherichia coli K-12), sequence (P00956 whole entry): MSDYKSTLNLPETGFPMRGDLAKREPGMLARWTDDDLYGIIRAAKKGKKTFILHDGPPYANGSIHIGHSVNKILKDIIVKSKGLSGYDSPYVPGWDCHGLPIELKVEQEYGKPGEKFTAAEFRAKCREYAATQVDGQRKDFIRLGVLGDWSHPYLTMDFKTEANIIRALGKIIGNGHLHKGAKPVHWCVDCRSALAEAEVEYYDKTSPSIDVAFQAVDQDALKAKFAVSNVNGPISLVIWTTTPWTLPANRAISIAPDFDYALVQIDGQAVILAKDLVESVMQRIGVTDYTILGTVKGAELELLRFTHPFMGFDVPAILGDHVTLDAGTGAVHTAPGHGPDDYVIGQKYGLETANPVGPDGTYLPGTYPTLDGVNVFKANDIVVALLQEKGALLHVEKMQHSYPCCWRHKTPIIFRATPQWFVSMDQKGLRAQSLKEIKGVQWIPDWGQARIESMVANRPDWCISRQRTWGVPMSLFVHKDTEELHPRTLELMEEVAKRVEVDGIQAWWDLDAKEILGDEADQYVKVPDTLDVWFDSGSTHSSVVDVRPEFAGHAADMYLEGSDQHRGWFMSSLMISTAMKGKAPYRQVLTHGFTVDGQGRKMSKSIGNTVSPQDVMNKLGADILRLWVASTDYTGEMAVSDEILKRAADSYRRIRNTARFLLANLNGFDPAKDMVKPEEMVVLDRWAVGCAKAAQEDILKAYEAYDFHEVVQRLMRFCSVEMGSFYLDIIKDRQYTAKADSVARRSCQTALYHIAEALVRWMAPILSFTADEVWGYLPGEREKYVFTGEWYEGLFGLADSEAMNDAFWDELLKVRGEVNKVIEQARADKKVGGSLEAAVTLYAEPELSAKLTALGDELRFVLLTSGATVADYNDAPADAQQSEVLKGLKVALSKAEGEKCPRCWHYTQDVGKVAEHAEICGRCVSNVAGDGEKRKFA

On to `CC[C@H](C)[C@H](NC(=O)[C@H](C)NC(=O)[C@H](CC(N)=O)NC(=O)CNC(=O)[C@@H](NC(=O)[C@H](CCCNC(=N)N)NC(=O)[C@H](CCSC)NC=O)[C@@H](C)O)C(=O)NS(=O)(=O)OC[C@H]1O[C@@H](n2cnc3c(N)cccc32)[C@H](O)[C@@H]1O` (For-MRTGNA-X1), for which the “growth inhibition (GI)” value in the test with Escherichia coli [1] was “inactive”. Further, the “growth inhibition (GI)” value in the test on Escherichia coli [2] is “Active”.

`CC[C@H](C)[C@H](N)C(=O)NS(=O)(=O)OC[C@H]1O[C@@H](n2cnc3c([N+](=O)[O-])cccc32)[C@H](O)[C@@H]1O`: the “growth inhibition (GI)” value in the test on Escherichia coli [3] is “inactive”. Further, the inhibition result in test [4] is “Active”.

Take `CC[C@H](C)[C@H](NC(=O)[C@H](C)NC(=O)[C@H](CC(N)=O)NC(=O)CNC(=O)[C@@H](NC(=O)[C@H](CCCNC(=N)N)NC(=O)[C@H](CCSC)NC=O)[C@@H](C)O)C(=O)NS(=O)(=O)OC[C@H]1O[C@@H](n2ccc(=O)[nH]c2=O)[C@H](O)[C@@H]1O` (For-MRTGNA-X3): the “growth inhibition (GI)” value with Escherichia coli [1] and in the test with Escherichia coli [2] was “inactive” each time.

Turning to `CC[C@H](C)[C@H](NC(=O)[C@H](C)NC(=O)[C@H](CC(N)=O)NC(=O)CNC(=O)[C@@H](NC(=O)[C@H](CCCNC(=N)N)NC(=O)[C@H](CCSC)NC=O)[C@@H](C)O)C(=O)NS(=O)(=O)OC[C@H]1O[C@@H](n2cnc3c(=O)[nH]c(N)nc32)[C@H](O)[C@@H]1O` (For-MRTGNA-X7), the “growth inhibition (GI)” value in the test on Escherichia coli [1] was “inactive”.

For the compound `CC[C@H](C)[C@H](N)C(=O)NS(=O)(=O)OC[C@H]1O[C@@H](n2cnc3c(N)cccc32)[C@H](O)[C@@H]1O`, the “growth inhibition (GI)” value in the test with Escherichia coli [3] was “inactive”. Also, in test [4], the inhibition result is “Active”.

As for `CC[C@H](C)[C@H](N)C(=O)NS(=O)(=O)OC[C@H]1O[C@@H](n2ccc(N)nc2=O)[C@H](O)[C@@H]1O`, in the test with Escherichia coli [3], the “growth inhibition (GI)” value was “inactive”. Moreover, the inhibition entry in test [4] was “Active”.

On to `CC[C@H](C)[C@H](NC(=O)[C@H](C)NC(=O)[C@H](CC(N)=O)NC(=O)CNC(=O)[C@@H](NC(=O)[C@H](CCCNC(=N)N)NC(=O)[C@H](CCSC)NC=O)[C@@H](C)O)C(=O)NS(=O)(=O)OC[C@H]1O[C@@H](n2cnc3c(O)ncnc32)[C@H](O)[C@@H]1O` (For-MRTGNA-X4), for which the “growth inhibition (GI)” value in the test on Escherichia coli [1] was “inactive”. Moreover, the “growth inhibition (GI)” value in the test with Escherichia coli [2] was “Active”.

Turning to `CC[C@H](C)[C@H](NC(=O)[C@H](C)NC(=O)[C@H](CC(N)=O)NC(=O)CNC(=O)[C@@H](NC(=O)[C@H](CCCNC(=N)N)NC(=O)[C@H](CCSC)NC=O)[C@@H](C)O)C(=O)NS(=O)(=O)OC[C@H]1O[C@@H](n2ccc(N)nc2=O)[C@H](O)[C@@H]1O` (For-MRTGNA-X5), the “growth inhibition (GI)” value with Escherichia coli [1] is “inactive”.

For `CC[C@H](C)[C@H](NC(=O)[C@H](C)NC(=O)[C@H](CC(N)=O)NC(=O)CNC(=O)[C@@H](NC(=O)[C@H](CCCNC(=N)N)NC(=O)[C@H](CCSC)NC=O)[C@@H](C)O)C(=O)NS(=O)(=O)OC[C@H]1O[C@@H](n2cnc3c([N+](=O)[O-])cccc32)[C@H](O)[C@@H]1O` (For-MRTGNA-X6), the “growth inhibition (GI)” value with Escherichia coli [1] is “inactive”.

Take `CC[C@H](C)[C@H](N)C(=O)NS(=O)(=O)OC[C@H]1O[C@@H](n2cnc3c(=O)[nH]c(N)nc32)[C@H](O)[C@@H]1O`: in the test with Escherichia coli [3], the “growth inhibition (GI)” value is “inactive”. Further, the inhibition result in test [4] was “Active”.

Turning to `CC[C@H](C)[C@H](N)C(=O)NS(=O)(=O)OC[C@H]1O[C@@H](n2cnc3c(N)ncnc32)[C@H](O)[C@@H]1O`, the “growth inhibition (GI)” value with Escherichia coli [3] is “inactive”. Further, the inhibition entry in test [4] is “Active”.

As to `CC[C@H](C)[C@H](N)C(=O)NS(=O)(=O)OC[C@H]1O[C@@H](n2cnc3c(O)ncnc32)[C@H](O)[C@@H]1O`, the “growth inhibition (GI)” value with Escherichia coli [3] is “inactive”. Further, the inhibition entry in test [4] was “Active”.

As for `CC[C@H](C)[C@H](NC(=O)[C@H](C)NC(=O)[C@H](CC(N)=O)NC(=O)CNC(=O)[C@@H](NC(=O)[C@H](CCCNC(=N)N)NC(=O)[C@H](CCSC)NC=O)[C@@H](C)O)C(=O)NS(=O)(=O)OC[C@H]1O[C@@H](n2cnc3c(N)ncnc32)[C@H](O)[C@@H]1O` (For-MRTGNA-X2), the “growth inhibition (GI)” value in the test on Escherichia coli [1] is “inactive”. The “growth inhibition (GI)” value with Escherichia coli [2] is “Active”.

Take `CC[C@H](C)[C@H](N)C(=O)NS(=O)(=O)OC[C@H]1O[C@@H](n2ccc(=O)[nH]c2=O)[C@H](O)[C@@H]1O`: in the test on Escherichia coli [3], the “growth inhibition (GI)” value is “inactive”. The inhibition result in test [4] was “Active”.
